Legend:
[1] = system: primary human lung fibroblasts from IPF patients; conditions: cited from earlier work
[2] = system: 14 Nintedanib-responsive genes; experiment: Gene set variation analysis (GSVA) of the 14-gene set, INMARK trial, IPF patients; type: in vivo, human; conditions: V5 (12 weeks) vs V2, 150 mg b.i.d., p = 1.35E-05, no significant change with Placebo
Text: (§1) Gene set variance analysis (GSVA): The Bioconductor package Gene Set Variance Analysis version 1.3.2 was applied to score each sample individually for the activity of the 14 genes (LTF, CEACAM6, CTSG, OLFM4, MMP8, CEACAM8, DEFA4, OLR1, SHISA4, ABCA13, EMID1, LMOD1, MPO, and PRTN3). The GSVA function was executed with an expression matrix of the log2 Transcripts Per Million (TPM) with a pseudocount of 0.01 added to each value, the list of 14 genes, and the parameter mx.diff set to true. Statistical differences between the GSVA scores between the different treatment groups were tested using a simple linear model and moderated t-statistics computed by the limma package using an empirical Bayes shrinkage method (Law et al., Genome Biol. 2014 Feb 3;15(2):R29.). Identification of genes altered upon Nintedanib treatment in patients with IPF

[3] = system: protein-coding genes in whole blood; experiment: Whole-transcriptome RNA sequencing, differentially expressed genes, INMARK trial, IPF patients; type: in vivo, human
Procedure: Blood was sampled into PAXgene RNA tubes (PreAnalytix) and RNA was extracted using the PAXgene Blood RNA kit. Quantity of total RNA was determined by direct absorbance measurement at 260 nm using a spectrophotometer. RNA sequencing libraries were prepared using the Illumina TruSeq Stranded Total RNA Library Prep Kit with Ribo-Zero Globin. Briefly, following removal of ribosomal RNA and globin-encoding mRNA, cleaved RNA fragments were reversely transcribed into first strand cDNA using reverse transcriptase and random primers followed by second strand cDNA synthesis using DNA Polymerase I and RNase H. Strand origin was kept by using Uracil instead of Thymin in the nucleotide mix for […] cDNA synthesis. Following 3′-adenylation and index adapter ligation, cDNA products were purified and enriched by PCR to create the final cDNA library. Library quantity was determined using the Quant-it Pico Green dsDNA reagent and quality was checked by analyzing cDNA fragment size using an Agilent Bioanalyzer 2100 device. Following library dilution to 5 nM, samples were pooled for cluster generation. […]
Quality control: The raw data (single-end read sequences of the captured cDNA fragments) obtained for each sample were assessed for quality using FASTQC v0.11.2. For a successful gene expression analysis of a sample, approximately 50 million reads were required. Reads were mapped to the human reference genome hg38 (GRCh38 Ensembl v. 84) using STAR v2.5.2a. The mapped reads were assessed using RNA-SeQC v1.1.8, whereby mapping statistics (e.g. unique mapping rate, number of detected genes, proportion of reads mapping to protein coding genes) provided the final criteria to decide on usability of the data.
Gene expression intensities were represented as either read counts or TPM values and calculated based on Ensembl v84 gene annotations using subread featureCounts and RSEM version 1.2.31 respectively. Further steps included the use of bamUtil version 1.0.11 and samtools version 1.1 for intermediate calculations such as indexing of bam-files and duplicate read marking. […]

IPF patients = conditions: multiple clinical trials; cited from earlier work
[4] = system: 14 Nintedanib-responsive genes; experiment: GSVA of the 14-gene set, SENSCIS trial, SSc-ILD patients; type: in vivo, human; conditions: at both visits (24 and 52 weeks), no significant change with Placebo
Text: as §1
Following identification of the 14 Nintedanib-responsive genes in the INMARK trial in the context of IPF, expression of these genes was assessed in two additional clinical trials. […] In both of these trials, whole blood samples were prospectively collected and the expression of the 14 said genes was retrospectively analyzed by whole-transcriptome RNA-sequencing. […] Similar effects were observed when the fold changes in expression were calculated in a per-patient fashion (FIG. 8).

[5] = system: normal human lung fibroblasts; conditions: in vitro; cited from earlier work
[6] = system: 14 Nintedanib-responsive genes; experiment: Whole blood RNA-sequencing of the 14 genes, SENSCIS trial, SSc-ILD patients; type: in vivo, human; conditions: 24 weeks (V70) and, in some instances, 52 weeks (V90), not following Placebo
Procedure: Blood was sampled into PAXgene RNA tubes (PreAnalytix) and RNA was extracted using the PAXgene Blood RNA kit. Quantity of total RNA was determined by direct absorbance measurement at 260 nm using a spectrophotometer. RNA sequencing libraries were prepared using the Illumina TruSeq Stranded Total RNA Library Prep Kit with Ribo-Zero Globin. […] Library quantity was determined using the Quant-it Pico Green dsDNA reagent and quality was checked by analyzing cDNA fragment size using an Agilent Bioanalyzer 2100 device. […]
Normalization factors to scale the samples based on the raw library sizes were calculated using the weighted trimmed mean of M-values (TMM) method using the default parameters of edgeR’s calcNormFactors function (Robinson and Oshlack, Genome Biol. 2010;11(3):R25.). After these pre-processing steps, the log2 counts per million along with associated weights for each observation were then calculated based on the normalized library sizes from the previous step using limma’s voom function (Law et al., Genome Biol. 2014 Feb 3;15(2):R29.). […] Estimates for the mean log2 fold change between follow-up visit at week 12 (wk12) and baseline (bl) in each treatment arm was calculated as
Following identification of the 14 Nintedanib-responsive genes in the INMARK trial in the context of IPF, expression of these genes was assessed in two additional clinical trials. […]

[7] = system: lung fibroblasts from patients with IPF; conditions: cited from earlier work
mouse models of IPF = conditions: cited from earlier work
[8] = clinical trials (i.a. CAPACITY and ASCEND); cited from earlier work
[9] = adj. p-value <0.05, baseline vs week 12

COC(=O)c1ccc2c(c1)NC(=O)/C2=C(\Nc1ccc(N(C)C(=O)CN2CCN(C)CC2)cc1)c1ccccc1 [Nintedanib, 3-Z-[1-(4-(N-((4-methyl-piperazin-1-yl)-methylcarbonyl)-N-methyl-amino)-anilino)-1-phenyl-methylene]-6-methoxycarbonyl-2-indolinone]
TGF-β-induced fibroblast to myofibroblast transformation [1]: inhibited
change in GSVA score of the 14-gene set [2]: highly significant reduction
number of significantly changed genes that were downregulated [3, 9]: 18
number of significantly changed genes that were upregulated [3, 9]: one
number of protein-coding genes with significant differences in expression pre- vs post-treatment ([3]; adj. p-value <0.05, baseline vs week 12, 150 mg b.i.d.): 19
annual loss of lung function (IPF patients): reduce
change in GSVA score of the 14-gene set [4]: significant reduction
PDGFR-a and-β activation and proliferation of normal human lung fibroblasts [5]: inhibit
expression of most of the 14 genes [6]: downregulated
PDGF-or FGF-2-stimulated migration of lung fibroblasts [7]: attenuated
total lung collagen (mouse models of IPF; IPF mouse models): significant reductions
lymphocyte and neutrophil counts in the bronchoalveolar lavage fluid (mouse models of IPF; two different mouse models of IPF): significant reductions

Cc1ccc(=O)n(-c2ccccc2)c1 [Pirfenidone, 5-methyl-1-phenyl-2(1H)-pyridone]
decline of the forced vital capacity (FVC) lung function [8]: efficacy in reducing

From patent publication US20230135671A1, “USE OF BIOMARKERS IN THE TREATMENT OF FIBROTIC CONDITIONS” (Boehringer Ingelheim International GmbH, priority 2020, published 2023)
